Data reported in the METLIN SMRT retention time set (Domingo-Almenara et al. 2019).

Assay: gradient 5% acetonitrile 3 min, to 50% in 2 min, to 85% in 15 min, held 3 min, 100 µL/min
Details: column: Zorbax Extend-C18 2.1 x 50 mm; eluents: water / acetonitrile, 0.1% formic acid
Summary of the method: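 Data were gathered over 3 months by HPLC coupled to a quadrupole time-of-flight mass spectrometer, operated in positive and negative ionization mode. Mixtures of ~100 pure standards ran on a Zorbax Extend-C18 column (2.1 × 50 mm, 1.8 μm) at 100 μL/min, with water and acetonitrile each containing 0.1% formic acid and dead and dwell volumes of 40 μL and 900 μL. Retention time was read from adduct peaks picked by computer and checked manually.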

Compared with `CC(=O)c1ccc(N2CCN(C(=O)CN3C(=S)NC(C)(C)CC3C)CC2)cc1` (centres undefined), `CCN1C(=O)COc2cc(-c3noc(C(=O)N4CCN(c5cccc(Cl)c5)CC4)n3)ccc21` is higher in RP-LC retention time: 716 s for the first, 1140 s for the second.

First: COc1cc(OC)c(NS(=O)(=O)c2cc(-c3cc(C(F)(F)F)on3)sc2C)cc1Cl
Second: Cc1csc(-c2cc(S(=O)(=O)N3CCN(Cc4ccc5c(c4)OCO5)CC3)c(C)s2)n1
The RP-LC retention time of the first is higher: 1150 s for the first, 740 s for the second.

Compared with `Cc1ccc(-c2cn3c(C(=O)Nc4nc(C)cs4)csc3n2)cc1`, `Cc1cnn(Cc2nc(-c3ccc(NC(=O)c4ccsc4)cc3)oc2C)c1` is higher in RP-LC retention time: 848 s for the first, 876 s for the second.

Compared with `CCc1nncn1C1CCN(C(=O)Nc2ccc(Cl)cc2F)C1` (centres undefined), `Cc1cc(C2CCCN2C(=O)Nc2ccccc2C)no1` (centres undefined) is higher in RP-LC retention time: 638 s for the first, 757 s for the second.

Compared with `COCc1c(C(=O)O)nnn1Cc1ccc(OC)c(F)c1`, `CCN1C(=O)c2cccnc2Sc2cc(CNC(=O)c3cc(OC)cc(OC)c3)ccc21` is higher in RP-LC retention time: 658 s for the first, 777 s for the second.

Compared with `CCc1ccc(-n2nnc(C(=O)N3CCC(N4CCCCC4)CC3)c2-c2ccncc2)cc1`, `COc1ccc(N2CCN(c3ccc4cc(S(=O)(=O)N5CCCC5)ccc4n3)CC2)cc1` is higher in RP-LC retention time: 634 s for the first, 855 s for the second.

Going from `O=C(N1CCC(Cc2noc(-c3ccc(F)cc3)n2)C1)C1(c2ccccc2)CC1` (centres undefined) to `COc1ccc(N2CCN(c3ncccc3-c3nc(-c4ccccc4)no3)CC2)cc1`, the RP-LC retention time rises from 1010 s to 1290 s.

Going from `CN(Cc1nc2cc(C(=O)N3CCCC3)ccc2n1C)C(=O)Nc1ccccc1Br` to `O=C(NCc1ccccn1)C1CCN(S(=O)(=O)c2cc(C(=O)N3CCCC3)cs2)CC1`, the RP-LC retention time falls from 644 s to 609 s.

Compared with `Cc1cc(C)nc(SCc2cc(=O)c(OC(=O)c3cccc([N+](=O)[O-])c3C)co2)n1`, `COC(=O)c1[nH]c2c(c1C)C(=O)CC(c1cccc(OC)c1)C2` (centres undefined) is lower in RP-LC retention time: 883 s for the first, 838 s for the second.

Compared with `CC(C)CCNC(=O)[C@H](CC(C)C)NC(=O)[C@H]1O[C@@H]1C(=O)O`, `COC(=O)c1cccc(NC(=O)NC(C)C(=O)N2CCc3ccccc32)c1` (centres undefined) is lower in RP-LC retention time: 841 s for the first, 792 s for the second.

Going from `Cc1cc(NC(=O)CN2CCc3nc(NC(=O)C4CC4)sc3C2)no1` to `Cc1nn(CC(=O)NC2CCCCCC2)c(=O)c2c(-n3cccc3)n(-c3cccc(F)c3)nc12`, the RP-LC retention time rises from 546 s to 1090 s.

Going from `Cc1ccccc1-c1noc(CCc2nnc3ccc(N4CCOCC4)nn23)n1` to `COc1ccc(-c2noc(-c3ccc(NCCCN4CCCC4)nn3)n2)cc1`, the RP-LC retention time falls from 782 s to 642 s.

Going from `O=C(Nc1ccccc1)C1CCCN(c2ccc3cc(S(=O)(=O)N4CCCC4)ccc3n2)C1` (centres undefined) to `O=c1[nH]c2ccc(S(=O)(=O)N3CCN(c4nc5ccccc5[nH]4)CC3)cc2o1`, the RP-LC retention time falls from 773 s to 522 s.

First: Nc1nc(N2CCN(c3ccccc3)CC2)ncc1C(=O)Nc1ccccc1
Second: CC(=O)c1cccc(NC(=O)c2cccc3ccccc23)c1
The RP-LC retention time of the first is lower: 784 s for the first, 840 s for the second.

Going from `O=C(NC1CCCCCC1)C1CCN(C(=O)c2ncn3c2COC(c2ccccc2)C3)CC1` (centres undefined) to `CN(CCc1ccccn1)C(=O)C1CCN(c2cnn(C)c(=O)c2)CC1`, the RP-LC retention time falls from 794 s to 553 s.

Going from `O=C(c1sc2cccc(F)c2c1Cl)N1CCN(c2ncccn2)CC1` to `CC(C)c1noc(-c2cccnc2N2CCCN(Cc3cccc(C(F)(F)F)c3)CC2)n1`, the RP-LC retention time falls from 893 s to 794 s.

First: CN1CCCc2cc(C(CNC(=O)C(=O)NCc3ccc4c(c3)OCO4)N3CCCCC3)ccc21 (centres undefined)
Second: O=S(=O)(NCC1CCN(Cc2ccc(Cl)cc2)CC1)c1ccc2c(c1)-c1oncc1CO2
The RP-LC retention time of the first is higher: 734 s for the first, 708 s for the second.

First: CCc1nc(N)n(CC(=O)Nc2ccc(Cl)cc2)c(=O)c1C
Second: COc1ccc(NC(=O)N2CCC3(C2)C(=O)Nc2ccc(OC)cc23)cc1 (centres undefined)
The RP-LC retention time of the first is lower: 661 s for the first, 697 s for the second.

Going from `Cc1ccc(C)c(-c2cc3c4nn(CC(=O)N(C)c5ccc(F)cc5)c(=O)n4ccn3n2)c1` to `Cc1ccc(-c2coc(-c3ccc(NC(=O)c4cccs4)cc3)n2)c(C)c1`, the RP-LC retention time rises from 1020 s to 1270 s.

Going from `COCC1(O)CCOC2(CCN(Cc3c(F)cccc3Cl)CC2)C1` (centres undefined) to `CCCCNC(=O)c1cc(NS(=O)(=O)c2ccc(C(C)(C)C)cc2)cnc1N1CCNCC1`, the RP-LC retention time rises from 543 s to 706 s.

Compared with `Cc1nnc2ccc(C(=O)NC(C)C)cn12`, `CCOC(=O)Cc1sc(Nc2nc3ccccc3s2)nc1-c1ccccc1` is higher in RP-LC retention time: 590 s for the first, 1170 s for the second.

First: CCn1cc(CCNS(=O)(=O)c2cccc(F)c2)c2cccnc21
Second: O=C1CC(c2ccccc2)N1 (centres undefined)
The RP-LC retention time of the first is higher: 774 s for the first, 646 s for the second.
